Experimental data as given in patent publication US6737383B1, “Herbicidal oxadiazolidines” (priority 1999, dated 2004).

Experiments:
[1] = test system: bedstraw; test: Test B pre/postemergence bedstraw; assay type: in vivo, Galium aparine
In short: (§1)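 Response is a visual 0-to-10 score relative to untreated plants, where 0 means no effect and 10 means complete control, taken twelve to sixteen days after application. Treatments went onto soil at planting and onto foliage of 1- to 4-leaf plants, using a surfactant-containing non-phytotoxic solvent.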

[2] = test system: smallflower flatsedge; test: Test B flood test smallflower flatsedge; assay type: in vivo, Cyperus difformis
In short: (§2)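 Flood test on plants grown to the 2-leaf stage; treated plants kept in greenhouse twelve to sixteen days, then visually rated against controls on a 0 (no effect) to 10 (complete control) scale.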

[3] = test system: giant foxtail; test: Test B pre/postemergence giant foxtail; assay type: in vivo, Setaria faberii
In short: as §1

[4] = test system: sugar beet; test: Test B pre/postemergence sugar beet; assay type: in vivo, Beta vulgaris
In short: as §1

[5] = test system: rice; test: Test B flood test rice; assay type: in vivo, Oryza sativa
In short: as §2

[6] = test system: bamyardgrass; test: Test B flood test barnyardgrass; assay type: in vivo, Echinochloa crus-galli
In short: as §2

[7] = test system: velvetleaf; test: Test B pre/postemergence velvetleaf; assay type: in vivo, Abutilon theophrasti
In short: as §1

[8] = test system: purple nutsedge; test: Test B pre/postemergence purple nutsedge; assay type: in vivo, Cyperus rotundus
In short: as §1

[9] = test system: duck salad; test: Test B flood test duck salad; assay type: in vivo, Heteranthera limosa
In short: as §2

[10] = test system: wheat; test: Test B pre/postemergence wheat; assay type: in vivo, Triticum aestivum
In short: as §1

[11] = test system: rape; test: Test B pre/postemergence rape; assay type: in vivo, Brassica napus
In short: as §1

[12] = test system: blackgrass; test: Test B pre/postemergence blackgrass; assay type: in vivo, Alopecurus myosuroides
In short: as §1

[13] = test system: pigweed; test: Test B pre/postemergence pigweed; assay type: in vivo, Amaranthus retroflexus
In short: as §1

[14] = test system: wild oat; test: Test B pre/postemergence wild oat; assay type: in vivo, Avena fatua
In short: as §1

[15] = test system: soybean; test: Test B pre/postemergence soybean; assay type: in vivo, Glycine max
In short: as §1

[16] = test system: morningglory; test: Test B pre/postemergence morningglory; assay type: in vivo, Ipomoea hederacea
In short: as §1

[17] = Preemergence, Rate 31 g/ha, visual rating, scale 0 to 10 (0 no effect, 10 complete control)
[18] = Preemergence, Rate 250 g/ha, scale 0 to 10, 0 is no effect, 10 is complete control
[19] = Rate 31 g/ha, Postemergence, scale 0 to 10
[20] = Rate 62 g/ha, Postemergence, scale of 0 to 10 where 0 is no effect and 10 is complete control
[21] = Rate 125 g/ha, Postemergence, scale 0 to 10
[22] = Rate 31 g/ha, Pre-emergence section (flood test species), scale 0 to 10
[23] = Rate 62 g/ha, headed Pre-emergence (flood test species), scale 0 to 10 (0 no effect, 10 complete control)
[24] = Rate 125 g/ha, Pre-emergence, flood test species, scale 0 to 10 where 0 is no effect and 10 is complete control
[25] = Rate 250 g/ha, Pre-emergence, flood-test species, scale 0 to 10, 0 is no effect, 10 is complete control
[26] = Preemergence, Rate 62 g/ha, scale of 0 to 10 where 0 is no effect and 10 is complete control
[27] = Preemergence, Rate 125 g/ha, 0 is no effect, 10 is complete control

Cc1ccccc1-n1c(=O)on(C(=O)N(c2ccc(F)cc2)C2CCC2)c1=O [Compound 200]
2: Soybean plant response rating [15, 20] | Soybean plant response rating [15, 21] | Plant response rating (0 to 10; 0 is no effect, 10 is complete control), Soybean ([15]; Rate 250 g/ha, Postemergence) | Plant response rating (0 to 10; 0 is no effect, 10 is complete control), Morningglory ([16]; Rate 250 g/ha, Postemergence)
1: Plant response rating (0 to 10; 0 is no effect, 10 is complete control), Velvetleaf ([7]; Rate 250 g/ha, Postemergence)
6: Giant foxtail plant response rating [3, 18]
5: Blackgrass plant response rating (0 to 10 scale) [12, 27]
0: Bedstraw plant response rating [1, 17] | Bedstraw plant response rating [1, 18] | Bedstraw plant response rating [1, 19] | Bedstraw plant response rating [1, 20] | Bedstraw plant response rating [1, 21] | Plant response rating (0 to 10; 0 is no effect, 10 is complete control), Bedstraw ([1]; Rate 250 g/ha, Postemergence) | S. Flatsedge plant response rating [2, 22] | S. Flatsedge plant response rating [2, 23] | S. Flatsedge plant response rating [2, 24] | S. Flatsedge plant response rating [2, 25] | Giant foxtail plant response rating [3, 17] | Giant foxtail plant response rating [3, 26] | Giant foxtail plant response rating [3, 19] | Giant foxtail plant response rating [3, 20] | Giant foxtail plant response rating [3, 21] | Plant response rating (0 to 10; 0 is no effect, 10 is complete control), Giant foxtail ([3]; Rate 250 g/ha, Postemergence) | Sugarbeets plant response rating [4, 17] | Sugarbeets plant response rating [4, 26] | Sugarbeets plant response rating (0 to 10 scale) [4, 27] | Sugarbeets plant response rating [4, 18] | Sugarbeets plant response rating [4, 20] | Sugarbeets plant response rating [4, 21] | Plant response rating (0 to 10; 0 is no effect, 10 is complete control), Sugarbeets ([4]; Rate 250 g/ha, Postemergence) | Rice plant response rating [5, 22] | Rice plant response rating [5, 23] | Rice plant response rating [5, 24] | Rice plant response rating [5, 25] | Barnyardgrass plant response rating [6, 22] | Barnyardgrass plant response rating [6, 23] | Barnyardgrass plant response rating [6, 24] | Barnyardgrass plant response rating [6, 25] | Velvetleaf plant response rating [7, 17] | Velvetleaf plant response rating [7, 26] | Velvetleaf plant response rating [7, 18] | Velvetleaf plant response rating [7, 20] | Velvetleaf plant response rating [7, 21] | Nutsedge plant response rating [8, 17] | Nutsedge plant response rating [8, 26] | Nutsedge plant response rating (0 to 10 scale) [8, 27] | Nutsedge plant response rating [8, 19] | Nutsedge plant response rating [8, 20] | Nutsedge plant response rating [8, 21] | Plant response rating (0 to 10; 0 is no effect, 10 is complete control), Nutsedge ([8]; Rate 250 g/ha, Postemergence) | Ducksalad plant response rating [9, 22] | Ducksalad plant response rating [9, 23] | Ducksalad plant response rating [9, 24] | Ducksalad plant response rating [9, 25] | Wheat plant response rating [10, 17] | Wheat plant response rating [10, 26] | Wheat plant response rating [10, 18] | Wheat plant response rating [10, 20] | Wheat plant response rating [10, 21] | Plant response rating (0 to 10; 0 is no effect, 10 is complete control), Wheat ([10]; Rate 250 g/ha, Postemergence) | Rape plant response rating [11, 17] | Rape plant response rating [11, 26] | Rape plant response rating (0 to 10 scale) [11, 27] | Rape plant response rating [11, 18] | Rape plant response rating [11, 19] | Rape plant response rating [11, 20] | Rape plant response rating [11, 21] | Plant response rating (0 to 10; 0 is no effect, 10 is complete control), Rape ([11]; Rate 250 g/ha, Postemergence) | Blackgrass plant response rating [12, 17] | Blackgrass plant response rating [12, 26] | Blackgrass plant response rating [12, 19] | Blackgrass plant response rating [12, 20] | Blackgrass plant response rating [12, 21] | Plant response rating (0 to 10; 0 is no effect, 10 is complete control), Blackgrass ([12]; Rate 250 g/ha, Postemergence) | Redroot pigweed plant response rating [13, 17] | Redroot pigweed plant response rating [13, 26] | Redroot pigweed plant response rating (0 to 10 scale) [13, 27] | Redroot pigweed plant response rating [13, 18] | Redroot pigweed plant response rating [13, 19] | Redroot pigweed plant response rating [13, 20] | Redroot pigweed plant response rating [13, 21] | Plant response rating (0 to 10; 0 is no effect, 10 is complete control), Redroot pigweed ([13]; Rate 250 g/ha, Postemergence) | Wild oats plant response rating [14, 17] | Wild oats plant response rating [14, 26] | Wild oats plant response rating [14, 18] | Wild oats plant response rating [14, 20] | Wild oats plant response rating [14, 21] | Plant response rating (0 to 10; 0 is no effect, 10 is complete control), Wild oats ([14]; Rate 250 g/ha, Postemergence) | Soybean plant response rating [15, 17] | Soybean plant response rating [15, 26] | Soybean plant response rating (0 to 10 scale) [15, 27] | Soybean plant response rating [15, 18] | Morningglory plant response rating [16, 17] | Morningglory plant response rating [16, 26] | Morningglory plant response rating (0 to 10 scale) [16, 27] | Morningglory plant response rating [16, 18] | Morningglory plant response rating [16, 19] | Morningglory plant response rating [16, 20] | Morningglory plant response rating [16, 21]
7: Blackgrass plant response rating [12, 18]
4: Giant foxtail plant response rating (0 to 10 scale) [3, 27]
